The source of these data is patent US20060258735A1, “1,3-Bis-(substituted-phenyl)-2-propen-1-ones and their use to treat VCAM-1 mediated disorders” (priority 2000, published 2006).

Counter-ions that a name gives are not always drawn. Like-named read-outs stand apart in the source and are kept apart here.

For one data set, the system named is VCAM-1. Nature of the data set: In vitro VCAM-1 assay (TNF stimulated vascular endothelial cells). Format: cell-based. The note with it: Endothelial cell. On the procedure: The ability of a compound described herein to inhibit the expression of VCAM-1 in a host can be assessed using any known method, including that described in detail below.
Two to four confluent P150 plates were trypsinized and the cells transferred to a 50 mL conical centrifuge tube. The cells were pelleted, resuspended and counted using the trypan blue exclusion method.
Cells were resuspended at a concentration of 36,000 cells/mL and 1 mL was aliquoted per well.
Cells were split into 24 well tissue culture plates. The cells in each well should be approximately 90-95% confluent by the following day. Cells should not be older than passage 8.
Compounds were initially screened at 50 μM and 10 μM. A 50 mM stock solution for each compound was prepared in culture medium. The stock solution was diluted to 5 mM and 1 mM. When 10 μL of the 5 mM solution was added to the well (1 mL medium/well), the final concentration was 50 μM. Adding 10 μL of the 1 mM solution to the well provides a final concentration of 10 μM.
Compounds which will not go into solution in culture medium were resuspended in DMSO at a concentration of 25 mM. The stock solution was then diluted to the final concentration in culture medium. The old medium was aspirated and 1 mL of the new medium with the compound was added. For example, if the final concentration was 50 μM, the 2 μL of the 25 mM stock was added per mL of culture medium. […] was diluted for lower concentrations.
The compounds were added to the plate (each compound is done in duplicate). One plate was prepared for VCAM expression and one plate was prepared for ICAM expression.
Immediately after the compounds weree added, TNF was added to each well 100 units/mL TNF was usually added to each well. Since each lot of TNF varies in the number of units, each new lot was titrated to determine the optimum concentration. Therefore this concentration changed. If 100 units/mL was being used, TNF was dilted to 10 units/μL and 10 μL added to each well.
The plates were incubated at 37° C., 5% CO2 overnight (approximately 16 hours). The next day the plates were checked under the microscope to see if there were any visual signs of toxicity. Records were made of any cell death, debris, or morphology changes, as well as insoluble compounds (particulate or turbity).
The degree of inhibition of the compounds of formula (I) was determined by the assays.

Data set [1] has as its system human aortic smooth muscle cells. In words: In vitro smooth muscle cell activity assay (3H-thymidine incorporation, serum stimulated). Format: cell-based. To be noted: human aortic smooth muscle cells stimulated with 5% serum. On the procedure:
Cultured human aortic smooth muscle cells were seeded in 24-well plates. When cells reached 80% confluency, they were made quiescent by changing media to 0.2% serum (as compared to 5% serum in normal culture media) for 48 hours. The cells were then stimulated by addition of 5% serum in the presence or absence of compounds dissolved in DMSO. To establish a dose curve and IC50 for each compound, multiple concentrations in 5-fold increments were used. After 20 hr incubation, 3H-thymidine (0.5 μCi/per well) was added to the cells for 4 hours of labeling. Washed cells were then lysed in NaOH and, the amount of 3H-thymidine incorporation was determined. Results are expressed as IC50 values (the amount of compound (µM) required to achieve a 50% reduction compared to control (cells stimulated with 5% serum only)).

Another data set relates to MCP-1. Nature of the data set: In vitro MCP-1 activity assay (TNF-α stimulated endothelial cells, MCP-1 immunoassay). Format: cell-based. To be noted: Endothelial cell; human endothelial cells stimulated with TNF-α (1 ng/ml), approximately 16 hours, MCP-1 immunoassay of culture media. On the procedure:
Cultured human endothelial cells were seeded in 96-well plates. On the following day cells were stimulated with TNF-α (1 ng/ml) in the presence or absence of compounds dissolved in DMSO. To establish a dose curve and IC50 for each compound, multiple concentrations in 2-fold increments were used. Cells were exposed to TNF-α and compounds for approximately 16 hours. The next day the cells were visually examined via light microscopy to score for visual signs of toxicity. Cell culture media, diluted 1:10, was analyzed by an MCP-1 immunoassay kit (R & D Systems). This assay is a sandwich immunoassay using immobilized anti-MCP-1 antibody in 96-well plate to capture secreted MCP-1 in cell culture media. Captured MCP-1 is subsequently detected with a horse radish peroxidase-conjugated anti-MCP-1 antibody for color development. Results are expressed as IC50 values (the amount of compound (µM) required to achieve a 50% reduction compared to control (cells stimulated with TNF-α only)).

[2] abbreviates: TNF stimulated cells, overnight (approximately 16 hours), read-out: VCAM-1 IC50.
The mark [3] stands for this setting: degree of inhibition of VCAM-1 expression, TNF stimulated endothelial cells, approximately 16 hours, read-out: VCAM-1 (µM).

One may read the melting point as the temperature, or range, at which the solid turns liquid. The compound `COc1ccc(-c2cccs2)cc1C=CC(=O)c1ccc(Cl)c(Cl)c1O.[Na]` showed a melting point of over 260 °C.

The compound `COc1cc(OCC(=O)O)c(C=CC(=O)c2cc(OC)c(OC)c(OC)c2)cc1-c1cc2ccccc2s1` (as salt: sodium) [3-[5-(benzo[b]thien-2-yl)-2-carboxymethoxy-4-methoxyphenyl]-1-(3,4,5-trimethoxyphenyl)-2-propen-1-one] registered a melting point of 255 to 257 °C.

Take `COc1cc(C=CC(=O)c2cc(OC)c(OC)c(OC)c2)cc(Br)c1OC` [3-(3-bromo-4,5-dimethoxyphenyl)-1-(3,4,5-trimethoxyphenyl)-2-propen-1-one]: the IC50 in the data set with VCAM-1 (setting [2]) is 4 µM.

On to `COc1cc(OCC(=O)O)c(C=CC(=O)c2cc(OC)c(OC)c(OC)c2)cc1-c1cc2ccccc2s1` [3-[5-(benzo[b]thien-2-yl)-2-carboxymethoxy-4-methoxyphenyl]-1-(3,4,5-trimethoxyphenyl)-2-propen-1-one], for which the IC50 with VCAM-1 (setting [2]) stood at 8.3 µM.

`COc1cc(C=CC(=O)c2ccc(OC)c(OC)c2OC)cc(-c2cccs2)c1OC` [Example 2, 3-[3,4-dimethoxy-5-(thien-2-yl)phenyl]-1-(2,3,4-trimethoxyphenyl)-2-propen-1-one] showed a melting point of 94 to 97 °C. The compound further showed an IC50 in data set [1] of 0.4 µM. This compound also registered an IC50 in the data set on MCP-1 of 5 µM.

`COc1cc(C(=O)C=Cc2cc(OC)c(OC)c(-c3cc4ccccc4s3)c2)cc(OC)c1OC` [Example 4, 3-[5-(benzo[b]thien-2-yl)-3,4-dimethoxyphenyl]-1-(3,4,5-trimethoxyphenyl)-2-propen-1-one] had a melting point of 150 to 151 °C.

Compound `COc1cc(OC)c(-c2cccs2)cc1C=CC(=O)c1cc(OC)c(OC)c(OC)c1` [Example 5, 3-[2,4-dimethoxy-5-(thien-2-yl)phenyl]-1-(3,4,5-trimethoxyphenyl)-2-propen-1-one] had a melting point of 75 to 80 °C. This compound also gave an IC50 in data set [1] of 0.45 µM.

Regarding `COc1cc(OC)c(-c2cc3ccccc3s2)cc1/C=C/C(=O)c1cc(OC)c(OC)c(OC)c1` [Example 6, 3-[5-(benzo[b]thien-2-yl)-2,4-dimethoxyphenyl]-1-(3,4,5-trimethoxyphenyl)-2-propen-1-one], the IC50 is 0.33 µM in data set [1] and over 50 µM with MCP-1.

For `COc1ccc(-c2cccs2)cc1C=CC(=O)c1cc(OC)c(OC)c(OC)c1` [Example 7, 3-[2-methoxy-5-(thien-2-yl)phenyl]-1-(3,4,5-trimethoxyphenyl)-2-propen-1-one], the IC50 amounted to 1.53 µM in data set [1] and 8 µM with MCP-1.

Regarding `COc1ccc(-c2cccs2)cc1C=CC(=O)c1ccc(OC)c(OC)c1` [Example 9, 3-[2-methoxy-5-(thien-2-yl)phenyl]-1-(3,4-dimethoxyphenyl)-2-propen-1-one], the IC50 came to 1.15 µM in data set [1] and 10 µM in the data set on MCP-1.

Regarding `COc1ccc(C(=O)C=Cc2cc(-c3cccs3)ccc2OC)cc1` [Example 11, 3-[2-methoxy-5-(thien-2-yl)phenyl]-1-(4-methoxyphenyl)-2-propen-1-one], the IC50 in data set [1] was 4.53 µM; in the data set on MCP-1, 10 µM.

On to `COc1ccc(-c2cccs2)cc1C=CC(=O)c1cc(OC)c(OCc2cccs2)cc1OC` [Example 17, 3-[2-methoxy-5-(thien-2-yl)phenyl]-1-(2,5-dimethoxy-4-(thien-2-ylmethoxy)phenyl)-2-propen-1-one], for which the melting point is 54 to 73 °C.

In turn, `COc1ccc(-c2cccs2)cc1C=CC(=O)c1ccc(I)cc1OC` [Example 18, 3-[2-methoxy-5-(thien-2-yl)phenyl]-1-(4-iodo-2-methoxyphenyl)-2-propen-1-one] returned a melting point of 150 to 155 °C.

As for `COc1cccc(-c2ccc(C(=O)C=Cc3cc(-c4cccs4)ccc3OC)c(OC)c2)c1` [Example 21, 3-[2-methoxy-5-(thien-2-yl)phenyl]-1-[2-methoxy-4-(3-methoxyphenyl)phenyl]-2-propen-1-one], the melting point fell in the range of 97 to 107 °C.

Regarding `COc1ccc(-c2cccs2)cc1C=CC(=O)c1ccc(F)c(F)c1` [Example 35, 3-[2-methoxy-5-(thien-2-yl)phenyl]-1-(3,4-difluorophenyl)-2-propen-1-one], the melting point fell in the range of 100 to 105 °C.

As for `COc1ccc(-c2cccs2)cc1C=CC(=O)c1ccc(Cl)c(Cl)c1O` [Example 36, 3-[2-methoxy-5-(thien-2-yl)phenyl]-1-(3,4-dichloro-2-hydroxyphenyl)-2-propen-1-one], the melting point lay within 152 to 163 °C.

In the case of `COc1cc(OC)c(-c2cccs2)cc1C=CC(=O)c1ccc(OC)c(OC)c1OC` [Example 41, 3-[2,4-dimethoxy-5-(thien-2-yl)phenyl]-1-(2,3,4-trimethoxyphenyl)-2-propen-1-one], the IC50 in data set [1] was 1.25 µM.

`COc1cc(OC)c(-c2cc3ccccc3s2)cc1C=CC(=O)c1cc(OC)c(OCCN2CCOCC2)c(OC)c1` [Example 43, 3-[5-(benzo[b]thien-2-yl)-2,4-dimethoxyphenyl]-1-[3,5-dimethoxy-4-(2-morpholinoethoxy)phenyl]-2-propen-1-one] had a melting point of 111 to 113 °C.

Compound `COc1cc(OC)c(-c2cc3ccccc3s2)cc1C=CC(=O)c1cc(OC)c(OCC(=O)O)c(OC)c1` [Example 44, 3-[5-(benzo[b]thien-2-yl)-2,4-dimethoxyphenyl]-1-(4-carboxymethoxy-3,5-dimethoxyphenyl)-2-propen-1-one] displayed a melting point of 145 to 153 °C.

`COc1cc(C=CC(=O)c2ccc(OC)c(OC)c2OC)cc(-c2cc3ccccc3s2)c1OC` [Example 49, 3-[5-(benzo[b]thien-2-yl)-3,4-dimethoxyphenyl]-1-(2,3,4-trimethoxyphenyl)-2-propen-1-one] had a melting point of 120 to 124 °C.

Compound `COc1cc(C=C2Cc3cc(-c4cccs4)ccc3C2=O)cc(OC)c1OC` [Example 53] had a melting point of 216 to 222 °C. Further, the IC50 in the data set with VCAM-1 (setting [3]) is over 50 µM.

Compound `COc1cc2c(cc1OC)C(=O)C(=Cc1cc(OC)c(OC)c(-c3cccs3)c1)CC2` [Example 54] came in with a melting point of 192 to 205 °C. The IC50 in the data set with VCAM-1 (setting [3]) came to 2 µM.

Take `COc1ccc(-c2cccs2)cc1C=C1Cc2cc(OC)c(OC)cc2C1=O` [Example 55]: the melting point was 164 to 172 °C. The IC50 in the data set on VCAM-1 (setting [3]) was over 50 µM.

For `COc1ccc(-c2cccs2)cc1/C=C/C(=O)c1ccc(-c2cccs2)cc1OC` [Example 58], the melting point lay within 30 to 50 °C.

`COc1cc(OC)c(-c2cc3ccccc3s2)cc1C=CC(=O)c1cc(OC)c(OCC(=O)[O-])c(OC)c1.[Na+]` [Example 61, 3-[5-(Benzo[b]thien-2-yl)-2,4-dimethoxyphenyl]-1-(4-carboxymethoxy-3,5-dimethoxyphenyl)-2-propen-1-one, sodium salt]: the melting point is 191 to 196 °C (dec.). In data set [1], this compound displayed an IC50 of 0.45 µM.

In data set [1], `COc1cc(OCC(=O)O)c(/C=C/C(=O)c2cc(OC)c(OC)c(OC)c2)cc1-c1cc2ccccc2s1` [Example 62, 3-[5-(Benzo[b]thien-2-yl)-2-carboxymethoxy-4-methoxyphenyl]-1-(3,4,5-trimethoxyphenyl)-2-propen-1-one, sodium salt] showed an IC50 of 1.25 µM.
